Experimental data: patent publication US10975114B2, “Bis 2′-5′-RR-(3′F-A)(3′F-A) cyclic dinucleotide compound and uses thereof” (ADURO BIOTECH, INC., priority 2017, dated 2021)

What was measured:
4T1 mammary carcinoma [1] = assay: Tumor-specific T cells in blood of 4T1 mice (AH1 tetramer flow cytometry); format: in vivo, BALB/c mice; settings: day 7 post IT injection, 0.1, 1 and 10 μg IT doses, compared to HBSS
Experimental: (§1) To assess the ability of 2′2′-RR-(3′F-A)(3′F-A) to promote anti-tumor immunity in a murine tumor model, 6-8 week old female BALB/c mice (n=8/group) were implanted in both the left and the right flanks with 4T1 mammary carcinoma cells (2×10^5 cells in 100 μL PBS). Mice were treated with 2′2′-RR-(3′F-A)(3′F-A) at 0.1, 1, 10 and 100 μg in a total volume of 40 μL HBSS and compared to Hank's Balanced Salt Solution (HBSS) vehicle control. Compound was administered when tumors reached a volume of approximately 40-50 mm^3 on day 8 post tumor implantation (indicated by dotted line on the x-axis in tumor growth graphs). The compound was administered by a single […] injection into the center of the tumor (intratumoral, IT) using a 27 gauge needle. Tumors were measured twice weekly.
Lympholyte (Cedarlane) gradient-purified PBMCs (˜1×10^6) were pre-incubated with anti-CD16/32 monoclonal antibody to block potential non-specific binding and labeled with murine T-Select H-2L^d MuLV gp70 Tetramer-[…]-PE (SEQ ID NO: 20, AH1 peptide with PE fluorescent label, MBL), anti-CD4-BUV737 (RMA4-5), anti-CD8α-BUV395 (53-6.7) (BD Biosciences); anti-CD90.2 BV510 (30-H12) (BioLegend) and the Fixable LIVE/DEAD Near-IR viability dye (ThermoFisher). Data were acquired using a LSRFortessa X-20 cytometer with FACSDiva software (BD) and analyzed with FlowJo software (Tree Star).

hSTING WT = target: T1, hSTING WT (Homo sapiens, UniProt Q86WV6, H232R); assay: ITC binding assay, hSTING WT; settings: 25° C., protein 0.1 mM, ligand 0.35 mM
T1 construct: made in house; host or cells: BL21 Rosetta 2 (DE3) E. coli
Experimental: (§2) The WT and REF proteins were similarly prepared for use in an ITC binding assay. Expression plasmids were transformed into BL21 Rosetta 2 (DE3) (EMD Millipore) E. coli cells for protein expression. 50 ml starter cultures were grown overnight in 2×YT supplemented with 50 μg/ml kanamycin and 30 μg/ml chloramphenicol. Multi-liter large scale cultures of the same growth media as the starter were inoculated at a ratio of 1:1,000 (V/V) and allowed to grow at 37° C. to an optical density of 0.6, cultures were then shifted to 18° C. Protein expression was induced by the addition of isopropyl β-D-1-thiogalactopyranoside to a final concentration of 0.3 mM. Protein expression was allowed to proceed for 18-24 hrs. Pelleted cells were resuspended in 50 mM Tris pH 7.5, 500 mM NaCl, 10% glycerol, 20 mM imidazole, 1 mM TCEP and complete protease inhibitor cocktail (Sigma). Cells were lysed by sonication (Branson) and insoluble material was removed by centrifugation. Proteins were purified on Ni-NTA resin and concentrated to >10 mg/ml. 6×H-SUMO-STING LBD was further purified by gel filtration chromatography using a High Load 26/600 Superdex 75 column (GE Healthcare) in a buffer of 20 mM Tris pH 7.5, 150 mM NaCl, 5% glycerol and 1 mM TCEP. Peak fractions were concentrated to between 10-15 mg/ml via ultrafiltration aliquoted and flash frozen in liquid nitrogen and stored at […]
The resulting amino acid sequence for the STING WT allele is as follows: • Allele Name: WT • Amino Acid Sequence:
(§3) Proteins were dialyzed overnight in 20 mM HEPES pH 7.5, 150 mM NaCl. Insoluble material was removed by centrifugation at 31,000×g. The invention compound 2′2′-RR-(3′F-A)(3′F-A) and comparison STING agonists 3′3′-RR-(2′F-A)(2′F-A); 2′3′-RR-(3′F-A)(2′F-A) were resuspended in dialysis buffer. The concentration of both the protein and ligands were checked by spectroscopy and adjusted if necessary.
(§4) STING protein was added to the ITC sample cell at a final concentration of 0.1 mM. The CDN ligand was at a final concentration of 0.35 mM in the syringe. […]

4T1 mammary carcinoma [2] = assay: 4T1 mammary carcinoma dual-flank model, combination with anti-PD-1 antibody; format: in vivo, BALB/c mice
Experimental: (§5) To assess the ability of 2′2′-RR-(3′F-A)(3′F-A) to promote anti-tumor immunity in murine tumor models in combination with an antagonistic anti-PD-1 antibody, 6-8 week old female BALB/c mice (n=8/group) were implanted in both the left and the right flanks with 4T1 mammary carcinoma cells (2×10^5 cells in 100 aL PBS, day 0). Mice were treated with vehicle alone or 1 μg 2′2′-RR-(3′F-A)(3′F-A) in a total volume of 40 aL HBSS by IT injection using a 27 gauge needle when tumors reached a volume of approximately 40-50 mm^3 on day 8 post tumor implantation (indicated by dotted line on the x-axis in tumor growth graphs). Mice were given intraperitoneal (IP) injections of 200 μg control IgG or anti-PD-1 (clone RMP1-14, BioXCell) beginning on the day of 2′2′-RR-(3′F-A)(3′F-A) treatment and then continuing twice per week throughout the duration of the experiment. Some mice were given IP injection of 100 μg anti-CD8 (clone 2.43, BioXCell) on study days 6, 8, 10, 14, and 17 to deplete CD8^+ T cells. Tumors were measured twice weekly.

[3] = system: THP1 cells (hSTING HAQ allele); assay: THP1-Dual IRF-3 luciferase reporter assay without digitonin; format: cell-based, human; settings: 30 min compound incubation, overnight readout of secreted luciferase
Experimental: Cells were washed with fresh media and incubated for 30 min at 37° C. with 5% CO2 with compounds in 3-fold titration steps from 2,000 to 0.0338 μM in PB buffer (50 mM 4-(2-hydroxyethyl)-1-piperazineethanesulfonic acid, 100 mM KCl, 3 mM MgCl2, 0.1 mM dithiothreitol, 85 mM sucrose, 1 mM ATP, 0.1 mM GTP and 0.2% bovine serum albumin). After 30 minutes, cells were washed and fresh RPMI media containing 10% FBS was added, and cells were incubated at 37° C. with 5% CO2. Cell culture supernatants from each sample were collected after overnight incubation, and 10 μl of the cell culture supernatants was added to 50 μl QUANTI-Luc reagent (Invivogen). Type I interferon activation was determined by measuring secreted luciferase levels on a SpectraMax M3 spectrophotometer (Molecular Devices). The EC50 value for the same compounds as tested in Example 4 was determined from the dose-response curve for the 10 concentrations from the serial dilution of the compounds in this assay.

wild type hSTING = target: T2, wild type hSTING (Homo sapiens, UniProt Q86WV6, H232R); assay: DSF Tm shift, purified hSTING WT (AA140-379); format: binding; settings: 1 mg/ml STING AA140-379, ligand 1 mM
T2 construct: 6xHis-SUMO (with TEV site) (N, cleaved yes); made in house; host or cells: Rosetta2 (DE3) E. coli
Experimental: (§6) Cells were grown in lysogeny broth at 37° C. until a […] absorbance of 0.6 was reached. […] Cells were lysed using an S-450D sonifier (Emmerson industrial) on ice. […] Protein was aliquoted, flash frozen in liquid nitrogen and stored at −80° C. until use.
(§7) The protein is heated in the presence of a dye that binds to and fluoresces in hydrophobic environments. The protein is thermally denatured by heating resulting in increased dye binding to the unfolded protein and fluorescence. The temperature midpoint (Tm) of a proteins denaturation is established by calculating the half maximal value of the denaturation curve. The temperature midpoint of the protein in the presence of a ligand is directly related to the affinity of the ligand for the protein and therefore its ability to stabilize the protein at higher temperatures.

REF allele hSTING = target: T3, REF allele hSTING (Homo sapiens, UniProt Q86WV6); assay: DSF Tm shift, purified hSTING REF allele (AA140-379); format: binding; settings: 1 mg/ml STING AA140-379, ligand 1 mM
T3 construct: 6xHis-SUMO (with TEV site) (N, cleaved yes); made in house; host or cells: Rosetta2 (DE3) E. coli
Experimental: as §6, §7

hSTING REF allele = target: T4, hSTING REF allele (Homo sapiens, UniProt Q86WV6); assay: ITC binding assay, hSTING REF allele; settings: 25° C., protein 0.1 mM, ligand 0.35 mM
T4 construct: made in house; host or cells: BL21 Rosetta 2 (DE3) E. coli
Experimental: as §2
The resulting amino acid sequences for the STING REF allele is as follows: • Allele Name: REF • Amino Acid Sequence:
as §3, §4

4T1 mammary carcinoma [4] = assay: AH1-specific T cells in distal 4T1 tumor (TILs), with or without anti-PD-1; format: in vivo, BALB/c mice
Experimental: as §5, with “Some mice were given IP injection of 100 μg anti-CD8 (clone 2.43, BioXCell) on study days 6, 8, 10, 14, and 17 to deplete CD8^+ T cells.” left out
To directly quantify the effect of combining 2′2′-RR-(3′F-A)(3′F-A) with anti-PD-1 on tumor-specific T cells, a cohort of mice from Example 9 were euthanized on day 7 post IT injection and non-injected tumors dissociated into a single cell suspension. […] Data were acquired using a LSRFortessa X-20 cytometer with FACSDiva software (BD) and analyzed with FlowJo software (Tree Star).

4T1 mammary carcinoma [5] = assay: 4T1 mammary carcinoma dual-flank model, single intratumoral injection; format: in vivo, BALB/c mice
Experimental: as §1

HAQ allele hSTING = target: T5, HAQ allele hSTING (Homo sapiens, UniProt Q86WV6, G230A/H232R/R293Q); assay: DSF Tm shift, purified hSTING HAQ allele (AA140-379); format: binding; settings: 1 mg/ml STING AA140-379, ligand 1 mM
T5 construct: 6xHis-SUMO (with TEV site) (N, cleaved yes); made in house; host or cells: Rosetta2 (DE3) E. coli
Experimental: as §6, §7

[6] = 1 μg IT combined with anti-PD-1 antibody 200 μg IP twice per week

| Kd (hSTING WT) [nM] | EC50 [3] [nM] | EC50 ([3]; Homo sapiens, THP-1, 0.5 h) [nM] | hSTING Tm Shift WT (wild type hSTING) [°C] | hSTING Tm Shift REF (REF allele hSTING) [°C] | Kd (hSTING REF allele) [nM] | hSTING Tm Shift HAQ (HAQ allele hSTING) [°C] | Compound | frequency of tumor-specific systemic T cells (4T1 mammary carcinoma [1]) | cures, injected tumor (4T1 mammary carcinoma [2]; 1 μg IT + control IgG) [%] | cures, non-injected tumor (4T1 mammary carcinoma [2]; 1 μg IT + control IgG) [%] | cures, distal (non-injected) tumor (4T1 mammary carcinoma [2]; [6]) [%] | cures, primary (injected) tumor (4T1 mammary carcinoma [2]; [6]) [%] | tumor-specific T cell response in distal tumor (4T1 mammary carcinoma [4]; 1 μg IT alone, TILs day 7 post IT injection) | polyfunctional IFNγ+TNFα+ CD8 T cells specific for the AH1 peptide in the tumor microenvironment (4T1 mammary carcinoma [4]; 1 μg IT combined with anti-PD-1, TILs of non-injected tumor, day 7 post IT injection) | cures of the distal tumor (4T1 mammary carcinoma [5]; 10 μg single IT dose, n=8) [%] | cures of the primary tumor (4T1 mammary carcinoma [5]; 10 μg single IT dose, n=8) [%] | tumor inhibition in primary (injected) and distal (non-injected) flank tumor (4T1 mammary carcinoma [5]; single IT injection 0.1, 1, 10, 100 μg, compared to HBSS) |
| --- | --- | --- | --- | --- | --- | --- | --- | --- | --- | --- | --- | --- | --- | --- | --- | --- | --- |
| 98 | 16600 | < 20000 | 13.9 | 12.5 | 170 | 19.7 | Nc1ncnc2c1ncn2[C@@H]1O[C@@H]2CO[P@@](=O)(S)O[C@@H]3[C@H](F)[C@@H](CO[P@@](=O)(S)O[C@@H]1[C@@H]2F)O[C@H]3n1cnc2c(N)ncnc21 [2′2′-RR-(3′F-A)(3′F-A), (1S,3R,6R,8R,9S,11R,14R,16R,17R,18R)-8,16-bis(6-amino-9H-purin-9-yl)-17,18-difluoro-3,11-dimercapto-2,4,7,10,12,15-hexaoxa-3,11-diphosphatricyclo[12.2.1.1^6,9]octadecane 3,11-dioxide] | significantly higher frequency | 25 | 0 | 62.5 | 87.5 | measurable above background | statistically significant increase | 37.5 | 100 | potent dose-dependent tumor inhibition |
| 109 | – | 4500 | 14.5 | 10.5 | 333 | 26 | Nc1ncnc2c1ncn2[C@@H]1O[C@@H]2CO[P@@](=O)(S)O[C@@H]3[C@H](F)[C@@H](OC[P@@](=O)(S)O[C@H]2[C@H]1F)O[C@H]3n1cnc2c(N)ncnc21 [2′3′-RR-(3′F-A)(2′F-A), dithio-[Rp,Rp]-cyclic-[3′F-A(2′,5′)p-2′F-A(3′,5′)p]] | – | – | – | – | – | – | – | – | – | – |
| – | – | > 150000 | 3.4 | 3.6 | – | 5.1 | Nc1ncnc2c1ncn2[C@@H]1O[C@@H]2CO[P@@](=O)(S)O[C@@H]3[C@H](O)[C@@H](CO[P@@](=O)(S)O[C@@H]1[C@@H]2O)O[C@H]3n1cnc2c(N)ncnc21 [2′2′-RR-(A)(A), (1R,3R,6R,8R,9R,11R,14R,16R,17R,18R)-8,16-bis(6-amino-9H-purin-9-yl)-17,18-dihydroxy-3,11-dimercapto-2,4,7,10,12,15-hexaoxa-3,11-diphosphatricyclo[12.2.1.1^6,9]octadecane 3,11-dioxide] | – | – | – | – | – | – | – | – | – | – |
